What is called IC50 is the midpoint of a concentration-inhibition curve.

This passage reports IC50 results from paper PMC8294059, “Identification and Immune Assessment of T Cell Epitopes in Five Plasmodium falciparum Blood Stage Antigens to Facilitate Vaccine Candidate Selection and Optimization” (Frontiers in Immunology, 2021).

Where two headings read alike, the source gives them in different places. Where a SMILES comes first, the peptide text is derived from it.

In this assay the target is HLA-A*0201 (Homo sapiens, UniProt P04439, D140Y/D185E/D98H/E176V/E277Q/G131W/G231S/I119V/I121R/I166T/I218V/L300P/L318F/N151K/N90K/P208A/P217A/Q86G/Q94H/R138H/R169H/T345S). Kind of assay: In vitro class I HLA binding assay (fluorescence polarization competition). As to conditions: allele A*0201. The method, then:
A cell-free class I HLA binding assay that allows for in vitro quantification of peptide-HLA binding affinity in a competition format was used. In this assay, a fluorescently labeled, high binding, control peptide is loaded onto 384-well ½-area plates along with unlabeled experimental peptides. To remove endogenous peptides and render the HLA A and B molecules receptive to binding, HLA is heated at 53°C for 15 minutes and immediately added to the assay. The mixture is then allowed to stand for three days. Once the mixture has reached steady equilibrium (at 72 hours), displacement of the high binding control peptide is measured through fluorescence polarization. Binding of experimental peptides is expressed as the percent inhibition of the labeled control peptide (experimental fluorescence / control fluorescence, multiplied by 100). The percent inhibition values for each experimental peptide (across a range of molar concentrations) are used to calculate the concentration which inhibits 50% of the labeled control peptide’s specific binding. This value is referred to as the peptide’s IC50.
In general terms: Fluorescence polarisation rises when a labelled molecule tumbles more slowly, as on binding a larger partner.

Where [1] appears, read: fluorescence polarization competition, read-out: IC50 (nM), in vitro HLA binding affinity.
Where [2] appears, read: cell-free competition, fluorescence polarization at 72 hours, Non-binder = no dose-dependent inhibition, read-out: IC50.

For the compound `CC[C@H](C)[C@H](NC(=O)[C@H](Cc1ccc(O)cc1)NC(=O)[C@H](CO)NC(=O)[C@H](CO)NC(=O)[C@H](CC(N)=O)NC(=O)[C@H](CC(N)=O)NC(=O)[C@@H](NC(=O)[C@H](CC(C)C)NC(=O)[C@@H](N)CS)[C@@H](C)CC)C(=O)O` [AMA1_418] (H-CLINNSSYI-OH), under setting [1], the half-inhibitory concentration (IC50) was 3820 nM. Turning to `CC(C)C[C@H](NC(=O)[C@H](CCC(=O)O)NC(=O)[C@H](CCCCN)NC(=O)[C@H](Cc1ccccc1)NC(=O)[C@H](Cc1c[nH]cn1)NC(=O)[C@H](Cc1ccc(O)cc1)NC(=O)[C@H](CCC(N)=O)NC(=O)[C@H](CC(C)C)NC(=O)[C@@H](N)Cc1ccccc1)C(=O)O` [RH5_144] (H-FLQYHFKEL-OH), the IC50 under setting [1] was 14600 nM.

On to `CC[C@H](C)[C@H](NC(=O)[C@H](CO)NC(=O)[C@H](CC(N)=O)NC(=O)[C@H](CCC(=O)O)NC(=O)[C@H](CC(N)=O)NC(=O)[C@H](CC(N)=O)NC(=O)[C@H](Cc1ccccc1)NC(=O)[C@H](Cc1ccccc1)NC(=O)[C@@H](NC(=O)[C@@H](N)Cc1ccc(O)cc1)[C@@H](C)CC)C(=O)O` [CYRPA_304] (H-YIFFNNENSI-OH), for which the IC50 under setting [1] was determined as 2830 nM.

Turning to `CC(C)C[C@H](NC(=O)[C@H](CC(N)=O)NC(=O)[C@H](CC(=O)O)NC(=O)[C@@H](NC(=O)[C@@H](NC(=O)[C@H](CCC(=O)O)NC(=O)[C@H](Cc1ccccc1)NC(=O)[C@H](CC(C)C)NC(=O)[C@@H](N)Cc1ccccc1)C(C)C)[C@@H](C)O)C(=O)O` [EBA175_1461] (H-FLFEVTDNL-OH), under setting [2], the concentration for half-maximal inhibition (IC50) is 269 nM. As to `CC[C@H](C)[C@H](NC(=O)[C@H](Cc1ccccc1)NC(=O)[C@H](CCCCN)NC(=O)[C@@H](NC(=O)[C@@H](NC(=O)[C@H](CC(=O)O)NC(=O)[C@@H](NC(=O)[C@H](Cc1ccc(O)cc1)NC(=O)[C@@H](NC(=O)[C@@H](N)Cc1ccc(O)cc1)[C@@H](C)CC)[C@@H](C)CC)[C@@H](C)O)[C@@H](C)CC)C(=O)O` [RH5_404] (H-YIYIDTIKFI-OH), under setting [1], the IC50 was found to be 53100 nM. For `CC(C)C[C@H](NC(=O)[C@H](Cc1ccccc1)NC(=O)[C@H](Cc1ccccc1)NC(=O)[C@H](Cc1ccc(O)cc1)NC(=O)[C@H](CCC(N)=O)NC(=O)[C@@H](NC(=O)CNC(=O)[C@H](CC(C)C)NC(=O)[C@@H](N)CCCCN)C(C)C)C(=O)O` [CYRPA_220] (H-KLGVQYFFL-OH), the IC50 under setting [1] was 805 nM.

With `CC[C@H](C)[C@H](NC(=O)[C@@H](N)CCCCN)C(=O)N[C@@H](CC(N)=O)C(=O)N[C@@H](CCC(=O)O)C(=O)N[C@H](C(=O)N[C@@H](Cc1ccc(O)cc1)C(=O)N[C@@H](CC(=O)O)C(=O)N[C@@H](CCCCN)C(=O)N[C@H](C(=O)O)C(C)C)[C@@H](C)O` [RH5_212] (H-KINETYDKV-OH), under setting [1], the IC50 stood at 10100 nM.

In the case of `CC[C@H](C)[C@H](NC(=O)[C@H](CC(N)=O)NC(=O)[C@H](CC(=O)O)NC(=O)CNC(=O)[C@@H](NC(=O)[C@@H](N)Cc1ccc(O)cc1)C(C)C)C(=O)N[C@@H](CC(N)=O)C(=O)N[C@@H](CC(N)=O)C(=O)N[C@H](C(=O)O)C(C)C` [CYRPA_242] (H-YVGDNINNV-OH), the IC50 under setting [1] was 1820 nM.

Regarding `CC[C@H](C)[C@H](NC(=O)[C@H](CO)NC(=O)[C@H](CO)NC(=O)[C@H](Cc1ccccc1)NC(=O)[C@H](CC(C)C)NC(=O)[C@@H](N)CC(N)=O)C(=O)N[C@@H](CCC(=O)O)C(=O)N[C@H](C(=O)N[C@H](C(=O)O)C(C)C)[C@@H](C)CC` [AMA1_092] (H-NLFSSIEIV-OH), the IC50 under setting [1] worked out at 1550 nM. With `CC(C)C[C@H](NC(=O)[C@@H](N)Cc1ccccc1)C(=O)N1CCC[C@H]1C(=O)N[C@H](C(=O)NCC(=O)N[C@@H](C)C(=O)N[C@@H](Cc1ccccc1)C(=O)N[C@@H](CCCCN)C(=O)N[C@@H](C)C(=O)O)[C@@H](C)O` [AMA1_379] (H-FLPTGAFKA-OH), the IC50 under setting [1] is 1390 nM. `CC[C@H](C)[C@H](NC(=O)[C@H](CC(C)C)NC(=O)[C@@H](N)CO)C(=O)N[C@@H](CCCCN)C(=O)N[C@@H](CCC(N)=O)C(=O)N[C@@H](CC(N)=O)C(=O)N[C@@H](CCCCN)C(=O)N[C@@H](Cc1ccc(O)cc1)C(=O)N[C@H](C(=O)O)C(C)C` [EBA175_0116] (H-SLIKQNKYV-OH): under setting [2], the concentration for half-maximal inhibition (IC50) was found to be 29900 nM.
